22 molecules from ChEMBL document CHEMBL1921797, “Synthesis and biological evaluation of arylated novobiocin analogs as Hsp90 inhibitors” (Bioorg Med Chem Lett, 2011) can be followed below.

In one assay the test system is SK-BR-3. Briefly: Antiproliferative activity against human SKBR3 cells. The assay is classed as functional, cell-based.
The subject of assay [1] is MCF7. Kind of assay: Antiproliferative activity against human MCF7 cells. In kind it is functional, cell-based.
Assay [2] concerns MCF7. Kind of assay: Ratio of IC50 for human SKBR3 cells to IC50 for human MCF7 cells. The assay is classed as functional.
In assay [3] the target is Heat shock protein HSP 90-beta (Homo sapiens) (UniProt P08238). Kind of assay: Inhibition of human C-terminal domain of Hsp90 in MCF7 cells assessed as Her2 degradation at 0.1 to 100 uM by Western blotting. The assay is classed as cell-based.
Assay [4] has the same target. Briefly: Inhibition of human C-terminal domain of Hsp90 in MCF7 cells assessed as Raf degradation at 0.1 to 100 uM by Western blotting. In kind it is cell-based. Background: In western blotting, separated proteins are transferred to a membrane and probed.
The target is the same in assay [5]. Kind of assay: Inhibition of human C-terminal domain of Hsp90 in MCF7 cells assessed as Akt degradation at 0.1 to 100 uM by Western blotting. The assay is classed as cell-based.
Assay [6] shares this target. Kind of assay: Induction of human Hsp90 activity in MCF7 cells at 0.1 to 100 uM by Western blotting. In kind it is cell-based.

One may read the IC50 as the midpoint of a concentration-inhibition curve. A higher IC50 goes with weaker potency in that assay.

The source made the active and inactive calls. No cut-off for these calls is given here. A value given as a limit tells only on which side of the number the result lay.

Heat shock protein HSP 90-beta (Homo sapiens), sequence (P08238 whole entry, the tested form may be a part): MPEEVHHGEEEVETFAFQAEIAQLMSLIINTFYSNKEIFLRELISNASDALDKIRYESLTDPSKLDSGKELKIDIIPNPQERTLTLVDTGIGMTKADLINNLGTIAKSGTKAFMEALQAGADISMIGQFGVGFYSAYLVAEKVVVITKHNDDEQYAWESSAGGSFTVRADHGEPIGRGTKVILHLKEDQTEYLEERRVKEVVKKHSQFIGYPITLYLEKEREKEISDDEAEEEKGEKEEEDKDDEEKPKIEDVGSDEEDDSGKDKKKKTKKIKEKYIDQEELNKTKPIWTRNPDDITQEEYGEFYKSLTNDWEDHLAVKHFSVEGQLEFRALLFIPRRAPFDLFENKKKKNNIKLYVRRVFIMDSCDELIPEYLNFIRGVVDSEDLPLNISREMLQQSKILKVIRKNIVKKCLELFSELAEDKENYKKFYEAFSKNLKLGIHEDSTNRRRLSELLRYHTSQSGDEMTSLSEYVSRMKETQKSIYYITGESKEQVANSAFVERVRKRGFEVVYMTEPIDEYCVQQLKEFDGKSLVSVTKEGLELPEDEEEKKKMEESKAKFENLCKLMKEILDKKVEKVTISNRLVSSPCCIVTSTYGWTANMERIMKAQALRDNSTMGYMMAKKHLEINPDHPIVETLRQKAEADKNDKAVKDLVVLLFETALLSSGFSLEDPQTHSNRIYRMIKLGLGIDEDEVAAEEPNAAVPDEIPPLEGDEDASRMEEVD

As for `COCOc1ccc(Cc2ccc3cc(NC(=O)c4ccc(OC(C)=O)c(CC=C(C)C)c4)c(=O)oc3c2C)cc1`, the half-inhibitory concentration (IC50) in the assay with SK-BR-3 is 13.5 µM; in the assay on MCF7 [1], 22.7 µM.
The corresponding values for `COc1cccc(Cc2ccc3cc(NC(=O)c4ccc(O)c(CC=C(C)C)c4)c(=O)oc3c2C)c1` are 14.8 µM and 19.7 µM.
The corresponding values for `CC(=O)Oc1ccc(C(=O)Nc2cc3ccc(Oc4ccc(C(C)(C)C)cc4)c(C)c3oc2=O)cc1CC=C(C)C` are 72.4 µM and 75 µM.
For `COc1ccc(Oc2ccc3cc(NC(=O)c4ccc(OC)c(-c5cccc(OC)c5)c4)c(=O)oc3c2C)cc1` the same measures were more than 100 µM and more than 100 µM.
`COc1cccc(Oc2ccc3cc(NC(=O)c4ccc(OC)c(-c5cccc(OC)c5)c4)c(=O)oc3c2C)c1`: the IC50 in the assay with SK-BR-3 and with MCF7 [1] was more than 100 µM in each case.
With `COCOc1ccc(Cc2ccc3cc(NC(=O)c4ccc(OC(C)=O)c(CC=C(C)C)c4)c(=O)oc3c2C)cc1OC`, the values for the half-inhibitory concentration (IC50) with SK-BR-3 and in the assay on MCF7 [1] were 14.2 µM and 14.9 µM, respectively.
The corresponding values for `COc1cccc(-c2cc(C(=O)Nc3cc4ccc(Oc5ccc(C(C)(C)C)cc5)c(C)c4oc3=O)ccc2OC)c1` are more than 100 µM and more than 100 µM.
`COc1ccc(Cc2ccc3cc(NC(=O)c4ccc(O)c(CC=C(C)C)c4)c(=O)oc3c2C)cc1OC`: the IC50 is more than 100 µM with SK-BR-3 and 13.9 µM in the assay on MCF7 [1]. Moreover, the “Ratio IC50” value in the assay with MCF7 [2] was determined as 10.
`COc1ccc(Nc2ccc3cc(NC(=O)c4ccc(O)c(CC=C(C)C)c4)c(=O)oc3c2C)cc1`: the IC50 with SK-BR-3 and with MCF7 [1] was more than 100 µM each time.
With `COc1cccc(-c2cc(C(=O)Nc3cc4ccc(Cc5ccccc5)c(C)c4oc3=O)ccc2OC)c1`, the figures for the IC50 in the assay on SK-BR-3 and with MCF7 [1] were 4.09 µM and 7.11 µM, respectively.
For `CC(C)=CCc1cc(C(=O)Nc2cc3ccc(Oc4ccc(C(C)(C)C)cc4)c(C)c3oc2=O)ccc1O` the same measures were 68.3 µM and 20.6 µM.
As for `COc1ccc(Cc2ccc3cc(NC(=O)c4ccc(OC(C)=O)c(CC=C(C)C)c4)c(=O)oc3c2C)cc1`, the values for the half-maximal inhibitory concentration (IC50) with SK-BR-3 and in the assay with MCF7 [1] were 23.5 µM and 11.5 µM, respectively. In addition, the inhibition result in assay [3], in assay [4] and in assay [5] was “Active” in each case. For the same molecule, the outcome in assay [6] was inactive.
On to `CC(C)=CCc1cc(C(=O)Nc2cc3ccc(Cc4ccc(O)cc4)c(C)c3oc2=O)ccc1O`, for which the results for the IC50 in the assay with SK-BR-3 and with MCF7 [1] were 21.5 µM and 32.1 µM, respectively.
For `COc1ccc(Cc2ccc3cc(NC(=O)c4ccc(O)c(CC=C(C)C)c4)c(=O)oc3c2C)cc1` the same measures were 11.1 µM and 13.2 µM.
Take `COc1ccc(Oc2ccc3cc(NC(=O)c4ccc(O)c(CC=C(C)C)c4)c(=O)oc3c2C)cc1`: the IC50 is 42.7 µM with SK-BR-3 and 6.51 µM with MCF7 [1]. For the same molecule, the inhibition result in assay [3], in assay [4] and in assay [5] was “Active” each time. In addition, the outcome in assay [6] was inactive.
For `COc1ccc(Cc2ccc3cc(NC(=O)c4ccc(OC)c(-c5cccc(OC)c5)c4)c(=O)oc3c2C)cc1`, the concentration for half-maximal inhibition (IC50) in the assay with SK-BR-3 and in the assay with MCF7 [1] was more than 100 µM each time.
As to `COc1cccc(Oc2ccc3cc(NC(=O)c4ccc(OC(C)=O)c(CC=C(C)C)c4)c(=O)oc3c2C)c1`, the IC50 was found to be 13.7 µM in the assay with SK-BR-3 and 15.7 µM with MCF7 [1].
The corresponding values for `COc1ccc(Nc2ccc3cc(NC(=O)c4ccc(OC)c(-c5cccc(OC)c5)c4)c(=O)oc3c2C)cc1` are more than 100 µM and more than 100 µM.
With `COc1ccc(Nc2ccc3cc(NC(=O)c4ccc(OC(C)=O)c(CC=C(C)C)c4)c(=O)oc3c2C)cc1`, the IC50 with SK-BR-3 and in the assay on MCF7 [1] was more than 100 µM in each case.
Consider `COc1cccc(Oc2ccc3cc(NC(=O)c4ccc(O)c(CC=C(C)C)c4)c(=O)oc3c2C)c1`, for which the half-inhibitory concentration (IC50) with SK-BR-3 came out at 33.1 µM; with MCF7 [1], 62.8 µM.
For `COc1ccc(Oc2ccc3cc(NC(=O)c4ccc(OC(C)=O)c(CC=C(C)C)c4)c(=O)oc3c2C)cc1` the same measures were 19.5 µM and 18.2 µM.
`COc1cc(Cc2ccc3cc(NC(=O)c4ccc(O)c(CC=C(C)C)c4)c(=O)oc3c2C)ccc1O`: the figures for the IC50 in the assay with SK-BR-3 and in the assay with MCF7 [1] were 10.7 µM and 14.6 µM, respectively.
